Laboratory results published in paper PMC9743090, “Induction of Ferroptosis in Glioblastoma and Ovarian Cancers by a New Pyrrole Tubulin Assembly Inhibitor” (Journal of Medicinal Chemistry, 2022).

Test system: SKOV-3
Assay: In vivo SKOV-3 xenograft, tumor size and tumor tissue analysis
Design: species or system BALB/C^nu/nu mice
Procedure: Briefly, all 10 week-old female BALB/C^nu/nu mice (24 mice) were purchased from the Shanghai University of Traditional Chinese Medicine with Institutional Animal Care and Use Committee approval in accordance with institutional guidelines. All mice were randomly divided into four groups. In #1 group (4 mice), 1 × 10^8 cells/mL from U-87 MG at the logarithmic growth phase were harvested and inoculated subcutaneously, followed by intraperitoneal injection of 100 μL of 15 (25 mg/kg) every 2 days. In #2 group (4 mice), 1 × 10^8 cells/mL from U-87 MG at the logarithmic growth phase were harvested and inoculated subcutaneously, followed by intraperitoneal injection of 100 μL of saline every 2 days. In #3 group (4 mice), 1 × 10^8 cells/mL from SKOV-3 at the logarithmic growth phase were harvested and inoculated subcutaneously, followed by intraperitoneal injection of 100 μL 15 (25 mg/kg) every 2 days. In #4 group (4 mice), 1 × 10^8 cells/mL from SKOV-3 at the logarithmic growth phase were harvested and inoculated subcutaneously, followed by intraperitoneal injection of 100 μL of saline every 2 days. After continuous feeding for 40 days, the mice were sacrificed, and the tumors were removed. The tumors were weighed, and the volumes were calculated using the following formula: Tumor volume (cm^3) = (ab^2)/2 (a: the longest axis (cm), b: the shortest axis (cm)).
Briefly, fresh tissues were immersed in 4% paraformaldehyde (Sigma-Aldrich) for fixation at room temperature for 30 min. The tissues were then dehydrated in an ethanol gradient, embedded in paraffin, sectioned (thickness: 6 μm), and immersed in xylene for dewaxing. Tissue sections were blocked with immunohistochemical blocking solution (Beyotime Biotechnology Co., Ltd., Zhejiang, China) at 37 °C for 30 min. The blocking solution was then discarded, and the sections were washed three times at room temperature for 5 min, each with immunohistochemical washing solution (Beyotime Biotechnology). Then, primary antibodies (rabbit anti-GPX4 antibody [EPNCIR144] (ab125066), rabbit anti-ferritin heavy chain antibody [EPR18878] (ab183781), and rabbit anti-Ki67 antibody (ab15580), Abcam, MA, USA) were added and incubated at 37 °C for 45 min. After incubation, the antibody solution was discarded, and the sections were washed three times at room temperature for 5 min each with immunohistochemical washing solution (Beyotime Biotechnology). Then, the secondary antibody (goat anti-rabbit IgG H&L (Alexa Fluor 488), Abcam, MA, USA) was added, and the tissues were incubated at 37 °C for 45 min. After incubation, the antibody solution was discarded, and the sections were washed three times at room temperature for 5 min, each with immunohistochemical washing solution (Beyotime Biotechnology). Finally, immunofluorescence blocking solution (Sigma-Aldrich) was added, and the sections were mounted.
According to the instructions of the RNAprep pure Tissue Kit (TIANGEN Biotech (Beijing) China) Co., Ltd., Beijing, China), to about 20 mg of […] tissue specimen was added 800 μL of lysis solution, and the mixture was ground, homogenized, and centrifuged. To the supernatant, 200 μL of chloroform was added, and the mixture was mixed by inverting and centrifuged at 4 °C at 13,400 × g for 15 min. To the supernatant, two volumes of absolute ethanol were added, mixed by inversion, and centrifuged at 4 °C at 13,400 × g for 30 min. Ethanol precipitation and centrifugation of the supernatant were repeated. The RNA pellet was suspended with 500 μL of 75% ethanol and centrifuged at 13,400 × g at 4 °C for 5 min. The supernatant was discarded, the excess liquid was removed, and the pellet was dissolved in 300 μL of DECP water. One microliter of the RNA solution was used to measure the ratio of A260–A280 (generally 1.8–2.0) to determine the purity and approximate concentration of the RNA. […]

COc1cc(C(=O)c2cn(-c3ncccn3)cc2-c2ccco2)cc(OC)c1OC [Compound 15, (4-(Furan-2-yl)-1-(pyrimidyl-2-yl)-1H-pyrrol-3-yl)(3,4,5-trimethoxyphenyl)methanone]
ATP level in tumor tissue vs control (25 mg/kg i.p. every 2 days): significantly lower | Fe2+ concentration in tumor tissue vs control (25 mg/kg i.p. every 2 days): significantly higher | LPO level in tumor tissue vs control (25 mg/kg i.p. every 2 days): appreciably higher | MDA level in tumor tissue vs control (25 mg/kg i.p. every 2 days): appreciably higher | T-GSH level in tumor tissue vs control (25 mg/kg i.p. every 2 days): significantly lower | lactic acid level in tumor tissue vs control (25 mg/kg i.p. every 2 days): appreciably higher | tumor size (volume and weight) vs saline control (25 mg/kg i.p. every 2 days, day 40): significantly smaller | CD31 expression in tumor tissue vs control (immunofluorescence staining): significantly lower expression | FTH1 expression in tumor tissue vs control (immunofluorescence staining): significantly lower expression | GPX4 expression in tumor tissue vs control (immunofluorescence staining): significantly lower expression | Ki67 expression in tumor tissue vs control (immunofluorescence staining): significantly lower expression
